# Results as given in US20080058515A1, “Chemical Compounds” (priority 2003, published 2008).
# Target: T1, Serum Glucocorticoid-regulated Kinase-1 (SGK-1) (Homo sapiens, UniProt O00141, S422D)
# T1 construct: a truncated form of the human enzyme that included amino acids 61-431; 6xHis (N); made in house
# T1 sequence (O00141 61-431 S422D): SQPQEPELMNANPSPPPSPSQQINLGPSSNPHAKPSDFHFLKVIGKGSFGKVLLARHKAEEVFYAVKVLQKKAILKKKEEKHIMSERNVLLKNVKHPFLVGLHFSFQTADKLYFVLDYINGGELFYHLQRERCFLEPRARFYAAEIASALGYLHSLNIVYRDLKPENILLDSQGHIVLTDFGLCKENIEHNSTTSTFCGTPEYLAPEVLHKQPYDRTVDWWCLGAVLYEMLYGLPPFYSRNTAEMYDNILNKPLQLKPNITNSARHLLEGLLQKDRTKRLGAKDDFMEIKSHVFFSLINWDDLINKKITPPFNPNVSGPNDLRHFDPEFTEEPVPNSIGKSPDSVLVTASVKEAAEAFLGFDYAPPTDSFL
# Test: SGK-1 Enzyme Assay (SGK1e), substrate phosphorylation, scintillation proximity
# Format: biochemical
# Details: truncated human SGK-1 (aa 61-431, S422D), 10 μM ATP, Crosstide substrate
# Method: Compounds of the present invention were tested for Serum Glucocorticoid-regulated Kinase-1 (SGK-1) protein serine/threonine kinase inhibitory activity in substrate phosphorylation assays using enzyme purified from a baculovirus expression vector system. The recombinant baculovirus was made to express the intracellular domain of SGK-1 (GenBank accession number MD41091). The virus expressed a truncated form of the human enzyme that included amino acids 61-431. Serine422 was replaced with Aspartic acid to activate the enzyme, and 6 Histidine residues were added at the amino terminus to facilitate purification. The protein was purified using Ni-NTA agarose affinity chromatography. The peptide substrate was an N-terminal biotinylated sunthetic peptide named Crosstide (biotin-Ahx-GRPRTSSFAEG-OH), corresponding to the sequence in GSK3 surrounding the serine phosphorylated by MAPKAP Kinase-1/Rsk and p70 S6 Kinase.
# The method measures the ability of the isolated enzyme to catalyze the transfer of the γ-phosphate from ATP onto serine/threonine residues in the biotinylated Crosstide. Reactions were performed in 96-well polystyrene round-bottom plates in a final volume of 30 uL. Reaction mixtures contained 62.5 mM HEPES (pH 7.4), 10 mM MgCl2, 0.1 mM EDTA, 0.0024% TWEEN-20, and 1 mM DTT (added fresh daily), 10 μM ATP, 0.2 μCi [[v-^33P] ATP per reaction, 4 μM Crosstide peptide substrate, and 1 nM SGK1 enzyme. Reactions were initiated by adding the indicated enzyme. The reaction was allowed to proceed for 2 hours, then terminated by the addition of 50 mM EDTA and quantified using a scintillation proximity assay procedure as described (McDonald, O. B., Antonsson, B., Arkinstal, S., Marshall, C. J., and Wood, E. R. (1999) Analytical Biochemistry, 268, 318-329).
# Compounds under analysis were dissolved in Me2SO to 1 mM and serially diluted 1 to 3 with Me2SO through eleven columns of a 96 well plate. 1 uL of each concentration was transferred to the corresponding well of the assay plate. This created a final compound concentration range from 0.56 nM to 33.3 uM.
# The data for dose responses were plotted as % Control calculated with the data reduction formula 100*(U1-C2)/(C1-C2) versus concentration of compound and fitted to the curve described by:
# where Vmax is the upper asymptote and K is the IC50
row,Structure (SMILES),IC50 [µM]
1,"CC(C)CNC(=O)/C=C/c1n[nH]c2ccccc12 [Example 24, (2E)-3-(1H-indazol-3-yl)-N-isobutylprop-2-enamide]",1 to 10
2,"O=C(/C=C/c1n[nH]c2ccccc12)Nc1cccc(C(=O)c2ccccc2)c1 [Example 12, (2E)-N-(3-benzoylphenyl)-3-(1H-indazol-3-yl)-2-propenamide]",< 1
3,"CCCN(C)CCOc1ccc(NC(=O)/C=C/c2n[nH]c3ccccc23)cc1OC [Example 19, (2E)-3-(1H-indazol-3-yl)-N-(3-methoxy-4-{2-[methyl(propyl)amino]ethoxy}phenyl)-2-propenamide]",< 1
4,"N#Cc1ccccc1NC(=O)/C=C/c1n[nH]c2ccccc12 [Example 3, (2E)-N-(2-cyanophenyl)-3-(1H-indazol-3-yl)-2-propenamide]",< 1
5,"CCOC(=O)C1CCN(C(=O)/C=C/c2n[nH]c3ccccc23)CC1 [Example 27, Ethyl 1-[(2E)-3-(1H-indazol-3-yl)prop-2-enoyl]piperidine-4-carboxylate]",1 to 10
6,"O=C(/C=C/c1n[nH]c2ccccc12)Nc1ccc2ncsc2c1 [Example 1, (2E)-N-(1,3-benzothiazol-6-yl)-3-(1H-indazol-3-yl)-2-propenamide]",< 1
7,"COc1cc(NC(=O)/C=C/c2n[nH]c3ccccc23)ccc1OCCN(C(C)C)C(C)C [Example 15, (2E)-N-[4-[2-(diisopropylamino)ethoxy]-3-methoxyphenyl]-3-(1H-indazol-3-yl)-2-propenamide]",< 1

# Other lines, results leading:
row,IC50 [µM],Structure (SMILES)
1,< 1,"O=C(/C=C/c1n[nH]c2ccccc12)Nc1ccc(C(=O)NCCc2cccnc2)cc1 [Example 36, 4-(((2E)-3-(1H-indazol-3-yl)prop-2-enoyl)amino)-N-(2-pyridin-3-ylethyl)benzamide]"
2,< 1,"CCN(Cc1ccncc1)C(=O)c1cccc(NC(=O)/C=C/c2n[nH]c3ccccc23)c1 [Example 41, N-ethyl-3-(((2E)-3-(1H-indazol-3-yl)prop-2-enoyl)amino)-N-(pyridin-4-ylmethyl)benzamide]"
3,< 1,"O=C(/C=C/c1n[nH]c2ccccc12)N1CCC2(CC1)C(=O)NCN2c1ccccc1 [Example 30, 8-[(2E)-3-(1H-indazol-3-yl)prop-2-enoyl]-1-phenyl-1,3,8-triazaspiro[4.5]decan-4-one]"
